The test system of data set [1] is male rats. Description: Maximum tolerable dose (MTD) study p.o. For Clinical observations: key: N.R.: nothing remarkable. For Increase in weight: key: N.R.: nothing remarkable. It is filed as in vivo, rat. Particulars: p.o. Here is the method: (§1) Two tests were carried out on male rats, namely a determination of the "maximum tolerable dose" (MTD) and a test using multiple peroral doses. In addition, a LD50 test was carried out intravenously on mice.
(§2) In a MTD-test 10 animals were administered a dose of the substance once a day for a week, during which period the clinical and hematological parameters were recorded. When no signs of side effects appeared, the dose was increased in the following weeks until side effects appeared. The hemotological parameters measured were the following: the number of red and white blood cells, the number of blood platelets, the hemoglobin percentage, the hematocrit, and for the red blood cells also the average cell volume, the average cell hemoglobin content, and the average cell hemoglobin concentration. Furthermore, a differential count of the white blood cells was made.

A short description of data set [2]: Maximum tolerable dose (MTD) study p.o. For Clinical observations: key: N.R.: nothing remarkable. For Increase in weight: key: N.R.: nothing remarkable. The data set is classed as in vivo, rat. The note with it: rat, in vivo, po; peroral, rats. The procedure: as §1, §2
A further data set has as its system blood platelets. Description: Inhibition of blood platelet aggregation (aggregometer, ADP). It is filed as cell-based, human (healthy testees). Particulars: Platelet, 0.05 h; human PRP, ADP 2 to 4 μM, 3 min incubation, 37° C.; read-out: IC50 (Inhibition of blood platelet aggregation). Here is the method: Compounds according to the invention were tested for their inhibition of clumping together (aggregation) of blood platelets (thrombocytes), which is the first phase of the formation of blood clots (thrombi). Such an inhibition may prevent the formation of blood clots and inhibit the development of new thrombi after a diagnosed thrombus.
Citrate stabilized ( 0.38% of sodium citrate, final concentration) venous blood from healthy testees is used, who have not used medicine for at least 8 days. Slight centrifugation (160×g for 10 minutes) results in PRP (blood plasma rich in platelets) which is pipetted. PPP (blood plasma poor in platelets) is obtained by an intense centrifugation (3000×g for 10 minutes) of the remaining blood. The light transmission is measured by the aggregometer (CHRONOLOG). PRP allows nearly no light transmitaaion, while PPP allows complete transmission of light. The PRP is placed in the aggregometer at 37° C. while being stirred by a magnet. Addition of a pro-aggregating substance causes the PRP to aggregate gradually and an increasing light transmission takes place at the same time. At complete aggregation a light transmission corresponding to PPP is obtained. Adnosine diphosphate (ADP) is used as pro-aggregating substance, said substance representing a basic biochemical mechanism for aggregation of blood platelets. The test substances are incubated for 3 minutes in PRP placed in the aggregometer at 37° C. during magnetic stirring. A predetermined positively aggregating dosage of adenosine diphosphate (ADP) (2 to 4 μM) is then added. […] A so-called IC50 -value (that is the concentration inhibiting the aggregation by 50% relative to the control aggregation) is calculated for each test substance by linear regression analysis (log concentration μM as constant ad abscissa and % inhibition as variable ad ordinate). The following known reference substances have been used: nitroglycerine (GTN), sodium nitroprusside (NNP) and SIN-1 (the active metabolite of molsidomine).

Data set [3] deals with male rats. Put plainly: Maximum tolerable dose (MTD) study i.p. The data set is classed as in vivo, rat. Particulars: i.p. Here is the method: as §1, §2
Data set [4] is described as follows: Maximum tolerable dose (MTD) study i.p. It is filed as in vivo, rat. Particulars: rat, in vivo, ip; intraperitoneal, rats. Here is the method: as §1, §2
A further data set has as its system pre-contracted trachea. Put plainly: Relaxation of pre-contracted isolated trachea. Also noted: species or system guinea pig. Particulars: Cavia porcellus; carbamylcholine 0.3 μM, Krebs buffer, 37° C. Here is the method: Compounds according to the invention were tested for their ability to relax a pre-contracted trachea. A contraction of the respiratory passages in combination with a swelling of the mucuos membrane therein presents a vital factor at asthmatic conditions. Relaxation or dilation of the contracted respiratory passages will improve the asthmatic condition.
An isolated trachea from a guinea pig is used. After preparation of a strip which has maintained the circular musculature, the organ is divided into two parts of equal size. The two tracheal strips are suspended in their respective organ bath and connected to a transducer recording the contraction and relaxation of the organ by means of a recorder. The two tracheal strips are continuously bathed in a Krebs buffer at 37° C., constantly bubbled with carbogen (95% O2 and 5% CO2). After an equilibration time of about 3 hours the organs are tested for their sensitivity (contractility) to carbamylcholin a bolus being added directly to the bath (0.3 μM). If the contraction is satisfactory, the organs are transferred to the Krebs buffer containing the same concentration of carbamylcholine. The organs are now constantly exposed to the carbamylcholine and slowly develop a permanent contraction ("asthma"). The test substances are in bolus form added directly to the organ bath. After maximum effect (relaxation) the substances are removed by washing out and the tracheal strip reverts to its permanent contraction state. […] An EC50 -value (that is the concentration relaxing the organ by 50% relative to the maximum relaxation) is calculated for each test substance by means of a linear regression analysis (log concentration (μM) as a constant ad abscissa and % relaxation as variable ad ordinate). Sodium nitroprusside (NNP) and SIN-1 are used as reference substances.

Data set [5] concerns polymorph nuclear leukocytes (PMNs), c-GMP. Put plainly: Stimulation of c-GMP content in PMNs. Particulars: 37° C., 10 minutes. It is filed as cell-based, human. The procedure:
(§3) Compounds according to the invention were tested for their ability to increase the content of cyclic guanosine monophosphate (c-GMP), to inhibit the synthesis of the leukotriene B4 (LTB4), and to inhibit the chemotactical movement of polymorph nuclear leukocytes (PMN). The polymorph nuclear leukocytes play a vital part in the cellular part of the inflammation process. At diseases, such as asthma, the mucuos membrane of the respiratory passages is swollen as a result of an inflammation with a significant infiltration of polymorph nuclear leukocytes (PMN's) in particular. Particularly effective substances for the treatment of asthma are such which in addition to relaxing the musculature in the respiratory passages also have an anti-inflammatory effect on the cellular phase of the inflammatory process, that is inhibiting the leukocyte function.
(§4) Isolated human PMNs are incubated at 37° C. for 10 minutes, whereafter the content of cyclic guanosine monophosphate (c-GMP) is measured. Further, the synthesis of the LTB4 is determined after stimulation with Ca-ionophore (A23187) and the chemotaxis (controlled movement) towards FMLP (a substance attracting the polymorph nuclear leukocytes, PMNs) is determined.
Three compounds according to the invention and the reference substance SIN-1 were tested for their ability to stimulate the content of cyclic guanosine monophosphate (c-GMP).

Data set [6] relates to polymorph nuclear leukocytes (PMNs), LTB4 synthesis. Put plainly: Inhibition of leukotriene B4 synthesis in PMNs after Ca-ionophore (A23187). It is filed as cell-based, human. The procedure:
as §3, §4

For data set [7], the system named is polymorph nuclear leukocytes (PMNs). Put plainly: Inhibition of PMN chemotaxis towards FMLP. The data set is classed as cell-based, human. Here is the method: as §3, §4
Data set [8] deals with T1, soluble guanylate cyclase (Homo sapiens, UniProt Q02153).
T1 construct: The guanylate cyclase activity in the supernatant after incubation with and without the test substance; endogenous in cells; host or cells: human blood platelets, supernatant of homogenate
T1 sequence (Q02153 1-619): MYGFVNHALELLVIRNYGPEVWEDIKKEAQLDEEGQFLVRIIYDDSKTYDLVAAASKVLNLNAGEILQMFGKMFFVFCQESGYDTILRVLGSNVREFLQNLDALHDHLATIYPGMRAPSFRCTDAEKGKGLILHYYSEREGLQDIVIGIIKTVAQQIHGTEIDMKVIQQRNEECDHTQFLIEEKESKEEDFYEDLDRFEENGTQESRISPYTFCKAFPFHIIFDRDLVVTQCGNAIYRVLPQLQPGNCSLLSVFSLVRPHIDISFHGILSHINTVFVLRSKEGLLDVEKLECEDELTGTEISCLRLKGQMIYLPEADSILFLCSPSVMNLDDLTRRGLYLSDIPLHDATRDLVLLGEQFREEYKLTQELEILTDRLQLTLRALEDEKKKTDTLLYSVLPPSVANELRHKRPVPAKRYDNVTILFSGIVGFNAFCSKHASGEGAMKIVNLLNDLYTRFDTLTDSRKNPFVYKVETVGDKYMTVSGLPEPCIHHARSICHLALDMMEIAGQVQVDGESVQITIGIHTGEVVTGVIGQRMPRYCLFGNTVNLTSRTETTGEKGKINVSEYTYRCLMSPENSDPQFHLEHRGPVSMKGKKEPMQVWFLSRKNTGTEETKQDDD
T1 sequence (Q02108 1-690 partner): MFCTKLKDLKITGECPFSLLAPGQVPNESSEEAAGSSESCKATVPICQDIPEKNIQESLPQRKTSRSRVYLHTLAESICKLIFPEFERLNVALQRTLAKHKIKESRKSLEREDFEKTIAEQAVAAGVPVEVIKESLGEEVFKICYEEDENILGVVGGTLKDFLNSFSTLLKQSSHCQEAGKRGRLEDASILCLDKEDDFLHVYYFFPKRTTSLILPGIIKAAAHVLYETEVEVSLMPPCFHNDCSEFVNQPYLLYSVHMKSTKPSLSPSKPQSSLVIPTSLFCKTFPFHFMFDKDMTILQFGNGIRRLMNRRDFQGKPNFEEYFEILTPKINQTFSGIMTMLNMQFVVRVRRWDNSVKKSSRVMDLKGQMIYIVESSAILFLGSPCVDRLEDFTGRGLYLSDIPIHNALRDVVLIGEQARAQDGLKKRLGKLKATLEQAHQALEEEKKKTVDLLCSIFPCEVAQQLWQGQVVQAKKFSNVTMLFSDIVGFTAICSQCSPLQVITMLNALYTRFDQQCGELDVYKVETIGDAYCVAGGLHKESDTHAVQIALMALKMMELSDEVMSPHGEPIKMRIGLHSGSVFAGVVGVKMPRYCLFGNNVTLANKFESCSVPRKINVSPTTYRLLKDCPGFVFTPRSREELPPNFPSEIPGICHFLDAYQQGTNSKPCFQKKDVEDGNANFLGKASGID
Put plainly: Stimulation of guanylate cyclase from blood platelets (RIA). It is filed as biochemical. The note with it: 37° C.

The mark [9] stands for this setting: 10 mg/kg once a day for a week, relative to control.
[10] abbreviates: 20 mg/kg once a day for a week, relative to control.
Setting [11] is: 40 mg/kg once a day for a week, relative to control.
Where [12] appears, read: 20 mg/kg once a day for a week, relative to control, hydrochloride, 20 mg/kg.

This is an account of results in patent US5405857A, “3-substituted 1,2,3,4,-oxatriazole-5-imine compounds, a process for the preparation thereof and a pharmaceutical preparation containing said compounds” (A/S GEA Farmaceutisk Fabrik, priority 1991, dated 1995).

Each structure is given as a SMILES string. Entries after “also recorded” stand apart in the source; their conditions may differ. Structures can show the parent of a compound that is named as a salt.

Usually MTD stands for the largest dose that counted as tolerated. The low end stands for a narrow tolerated range, the high end for a wide tolerated range. Broadly, the IC50 is the concentration that inhibits the measured activity by half. Turning to `Cc1c(Cl)cccc1-[n+]1noc([NH-])n1` [Example 1, 3-(3-chloro-2-methylphenyl)-1,2,3,4-oxatriazole-5-imine hydrochloride], the Clinical observations result with male rats [1] (setting [9]) was “N.R”; in the data set with male rats [1] (setting [10]), “N.R”; in the data set with male rats [1] (setting [11]) it was “N.R”; in the data set with male rats [3] (setting [9]), “N.R”; with male rats [3] (setting [12]), “a passing CNS effect, where the animals a few minutes after the administration seemed nervous and hyperactive”. Besides, the Hematological parameters entry was “N.R” with male rats [1] (setting [9]), “N.R” in the data set on male rats [1] (setting [10]) and “N:R” in the data set with male rats [3] (setting [9]). Moreover, the Increase in weight entry in the data set with male rats [1] (setting [9]) is on record as “N.R”; in the data set with male rats [1] (setting [10]), “N.R”; in the data set on male rats [1] (setting [11]), “N.R”; in the data set with male rats [3] (setting [9]), “N.R”; in the data set with male rats [3] (setting [10]), “reduced”. Besides, in the data set on male rats [1] (setting [11]), the “Hematological parameters: hemoglobin percentage (HGB)” value is on record as “reduced HGB”. Moreover, the “Hematological parameters: red blood cells (RBC)” value in the data set with male rats [1] (setting [11]) is listed as “reduced RBC”. In the data set on male rats [1] (40 mg/kg once a day for a week, relative to control, hydrochloride, 40 mg/kg), the “Hematological parameters: white blood cells (WBC)” value was “increased WBC; also recorded: increased content of white blood cells”. In the data set with male rats [1] (40 mg/kg, after one week), the Signs of anemia entry is on record as “signs of anemia”. Besides, the MTD in [2] was 40 mg/kg; in data set [4] it was about 20 mg/kg. In addition, in the data set with blood platelets, the IC50 was 0.32 µM. In addition, in the data set with male rats [3] (setting [12]), the “Hematological parameters: neutrophilic granulocytes with toxic granulation” value is “increased number of neutrophilic granulocytes and a toxic granulation in some cells”. In addition, the “Tolerability (in words)” value in the data set with male rats [3] (rats, up to 20 mg/kg) is reported as “tolerated with only minor side effects”.
The EC50 is the concentration at which the effect is half-maximal. Take `[NH-]c1c[n+](N2CCOCC2)no1` [SIN-1, reference compound]: in the data set with pre-contracted trachea, the EC50 came out at 18.3 µM. In addition, the “c-GMP in PMNs” value in [5] (1 μM) amounted to 32 fmole/10^6 cells; in data set [5] (10 μM) it was 220 fmole/10^6 cells; in data set [5] (100 μM), 473 fmole/10^6 cells. The “Inhibition of leukotriene B4 synthesis (in words)” value in data set [6] was “also able to inhibit these leukocyte functions, but only when used in higher concentrations”. For the same compound, the IC50 with blood platelets stood at 3.9 µM. The “Inhibition of PMN chemotaxis (in words)” value in data set [7] was “also able to inhibit these leukocyte functions, but only when used in higher concentrations”. Besides, the figures for the Guanylate cyclase activity in data set [8] (0.01 μM) and in data set [8] (10 μm (so in the source)) were 0 pmole c-GMP/mg prot. × 15 minutes and 59733 pmole c-GMP/mg prot. × 15 minutes, respectively.
